Earlier results on 8 molecules are cited in publication PMC5063953 (Biochemical Pharmacology, 2016).

One data set concerns hCLR-RAMP2. The conditions noted are these: ref [60], cited from earlier work.
The next data set relates to hCLR-RAMP3. As to conditions: ref [60], cited from earlier work.
The subject of another data set is hCRF-1R. As to conditions: ref [44], cited from earlier work.
Another data set deals with rSecR. The conditions noted are these: ref [14], cited from earlier work.
A further data set deals with hSecR. The conditions noted are these: cited from earlier work.
Another data set deals with SecR. The conditions noted are these: R2.46A; ref [17]; cited from earlier work.
The test system of a further data set is hCLR-RAMP1. The conditions noted are these: cited from earlier work.
Another data set relates to rGCGR. The conditions noted are these: ref [52], cited from earlier work.
The next data set deals with hGCGR. The conditions noted are these: ref [15], cited from earlier work.
Another data set relates to hVPAC1R. As to conditions: cited from earlier work.
A further data set relates to hVPAC2R. The conditions noted are these: ref [35], cited from earlier work.
For another data set, the system named is oPTH-1R. As to conditions: ref [57], cited from earlier work.

Like-named read-outs stand apart in the source and are kept apart here. No end group written: not given here.

With “adrenomedullin: agonist at CLR-RAMP2 or CLR-RAMP3 complexes (YRQSMNNFQGLRSFGCRFGTCTVQKLAHQIYQFTDKDKDNVAPRSKISPQGY; ends and bridges not checked; cysteine pairing not given here; UniProt P35318 95-146, looked up)”, the “Effect compared with WT: cAMP production” value in the data set with hCLR-RAMP2 (K3.30A) is reported as “Reduced adrenomedullin cAMP production”; with hCLR-RAMP2 (R4.64A), “Reduced adrenomedullin mediated cAMP production”; in the data set with hCLR-RAMP3 (K3.30A), “Reduced adrenomedullin cAMP production”; in the data set on hCLR-RAMP3 (R4.64A), “Reduced adrenomedullin mediated cAMP production”. For the same molecule, the “function upon mutation of R4.64, in words” value was “altered adrenomedullin function” in the data set on hCLR-RAMP2 (R4.64 mutated, [63]) and “altered adrenomedullin function” with hCLR-RAMP3 (R4.64 mutated, [63]).
As for corticotropin-releasing factor [CRF], in the data set with hCRF-1R (K6.37A), the “Effect compared with WT: cAMP potency (Gs)” value is “Increased CRF mediated cAMP potency (Gs)” and the “Effect compared with WT: pERK1/2 (Gi)” value is recorded as “reduced pERK1/2 (Gi)”.
In the case of “secretin: agonist of the secretin receptor”, the “Effect compared with WT: cAMP production” value is “Reduced secretin-mediated cAMP production” in the data set with rSecR (R3.30A) and “No effect on secretin mediated cAMP production” in the data set with hSecR (R6.37A, ref [8]). In addition, the entries for the “Effect compared with WT: cAMP potency” value in the data set on rSecR (R4.64A) and in the data set on SecR were “Decreased secretin mediated cAMP potency” and “not cAMP potency”, respectively. Also, the “Effect compared with WT: affinity or receptor expression” value in the data set on hSecR (R6.37A/K6.40A, ref [17]) was “no effect on affinity or receptor expression”. Moreover, the “Effect compared with WT: cAMP and calcium” value in the data set on hSecR (R6.37A/K6.40A, ref [17]) is “Reduced secretin mediated cAMP and calcium”. For the same molecule, in the data set on SecR, the “Effect compared with WT: calcium potency” value is “Decreased secretin mediated calcium potency”.
On to calcitonin gene related peptide [CGRP], for which the “Effect compared with WT: cAMP potency” value with hCLR-RAMP1 (E7.63A, ref [59]) is “Reduced CGRP-mediated cAMP potency”; with hCLR-RAMP1 (R2.46A, ref [59]), “Reduced CGRP mediated cAMP potency”. In addition, the “Effect compared with WT: cAMP pEC50” value is reported as “Reduced CGRP-mediated cAMP pEC50” in the data set on hCLR-RAMP1 (H5.40A, ref [59]) and “Reduced CGRP mediated cAMP pEC50” with hCLR-RAMP1 (R4.64A, ref [59]). In addition, the “Effect compared with WT: cAMP production” value is given as “No effect on CGRP mediated cAMP production” in the data set on hCLR-RAMP1 (K3.30A, ref [59]); “No effect on CGRP mediated cAMP production” in the data set with hCLR-RAMP1 (K6.37A, ref [10]); “No effect on CGRP cAMP mediated production” in the data set on hCLR-RAMP1 (N5.56A, ref [59]). For the same molecule, the “Effect compared with WT: affinity or cAMP production” value in the data set on hCLR-RAMP1 (N2.52A, ref [59]) is on record as “No effect on CGRP affinity or cAMP production”. The “function upon mutation of R4.64, in words” value with hCLR-RAMP1 (R4.64 mutated, ref [60], [63]) was “not CGRP function”. The “reduction in affinity compared with WT” value in the data set on hCLR-RAMP1 (R6.40A, ref [10]) was 5 fold. Besides, the “reduction in cAMP production compared with WT” value with hCLR-RAMP1 (R6.40A, ref [10]) is listed as 30 fold.
On to “glucagon: peptide agonist of the glucagon receptor”, for which the “Effect compared with WT: potency in CRE reporter activity assay” value with rGCGR (E7.63A) is “Enhanced basal activity and enhanced potency in glucagon mediated CRE reporter activity assay”; in the data set on rGCGR (N7.61A), “Enhanced potency in glucagon mediated CRE reporter activity assay”. Further, in the data set on rGCGR (R6.37A), the “Effect compared with WT: CRE reporter activity” value was “Enhanced glucagon mediated CRE reporter activity (potency and Emax)”. Further, in the data set on hGCGR (K4.64L), the “Effect compared with WT: affinity” value was “Reduced glucagon affinity”. Besides, the “Effect compared with WT: expression and affinity” value with hGCGR (R3.30A) was “Reduced expression and glucagon affinity”; in the data set with hGCGR (R5.40A) it was “Reduced expression and glucagon affinity”.
“urocortin: agonist at hCRF-1R (DNPSLSIDLTFHLLRTLLELARTQSQRERAEQNRIIFDSV; ends and bridges not checked; UniProt P55089 83-122, looked up)”: in the data set on hCRF-1R (K6.40A), the “Effect compared with WT: IP3 (Gq)” value was “reduced IP3 (Gq)” and the “Effect compared with WT: cAMP (Gs)” value was “Increased urocortin mediated cAMP (Gs)”.
Consider vasoactive intestinal polypeptide [VIP], for which the “Effect compared with WT: cAMP production” value is on record as “Decreased VIP mediated cAMP production” with hVPAC1R (E7.63A, ref [13]); “No effect on VIP mediated cAMP production” with hVPAC1R (R6.37A, ref [13]); “Reduced VIP mediated cAMP production” with hVPAC1R (Y3.53A, ref [55]). Also, the “Effect compared with WT: IP3 production” value in the data set on hVPAC1R (R6.40A, ref [36]) is “Reduced VIP mediated IP3 production”. Also, the “Effect compared with WT: cAMP” value is given as “no effect on cAMP” with hVPAC1R (R6.40A, ref [36]) and “No effect on VIP mediated cAMP” in the data set on hVPAC1R (Y6.35A, ref [13]). Moreover, the “Effect compared with WT: cAMP potency” value in the data set on hVPAC2R (R6.37A) and in the data set on hVPAC2R (R6.40A) was “Reduced VIP mediated cAMP potency” in each case.

B1: parathyroid hormone (peptide, UniProt P01270 32-115, looked up)
Parathyroid hormone: SVSEIQLMHNLGKHLNSMERVEWLRKKLQDVHNFVALGAPLAPRDAGSQRPRKKEDNVLVESHEKSLGEADKADVNVLTKAKSQ
modifications: Parathyroid hormone
With B1, the “Effect compared with WT: cAMP” value in the data set on oPTH-1R (E7.63 K) and in the data set with oPTH-1R (R4.64A) was “No effect on PTH mediated cAMP” in each case. Also, in the data set on oPTH-1R (H2.52A), the “Effect compared with WT: cAMP production” value is on record as “No effect on PTH-1 cAMP production”.
